Measurements from patent publication US8076324B2, “Di(hetero)arylcyclohexane derivatives, their preparation, their use and pharmaceutical compositions comprising them” (Sanofi-Aventis, priority 2007, dated 2011).

Target: T1, myocardial ATP-sensitive potassium channel (SUR2A/Kir6.2) (UniProt Q61743+Q63563)
T1 construct: expressed in transfected cells
Assay: Rubidium efflux test on HEK293 cells transfected with SUR2A and Kir6.2 (myocardial action)
Format: cell-based, SUR2A from the rat, Kir6.2 from the mouse
Conditions: HEK293 cells transfected with SUR2A/Kir6.2; KATP channels opened by rilmakalim; 25 min incubation; read-out: IC50 values for the inhibition of the rubidium efflux
Description: 1) Action on the SUR2A/Kir6.2 potassium channel (myocardial action) The action of the compounds on the ion transport through the myocardial ATP-sensitive potassium channel (SUR2A/Kir6.2) was determined in the rubidium efflux test system described below on human embryonic kidney cells HEK293 which were transfected with the components SUR2A and Kir6.2 (cf. Weyermann et al., Naunyn-Schmiedeberg's Arch. Pharmacol. 369, 374-381 (2004)).
The HEK293 cells were cultured at 37° C. in a humidified air atmosphere with 7% carbon dioxide in minimal essential medium with Earle's salts and L-glutamine (MEM, Gibco), which was supplemented with 10% fetal calf serum and zeozin (0.36 mg/ml) and geneticin (0.75 mg/ml). The transfection of the cells and the preparation of a cell line with stable expression of Kir6.2 from the mouse (accession number AF037313) and SUR2A from the rat (accession number D83598/L40624) were carried out as described in Giblin et al., J. Biol. Chem. 274, 22652-22659 (1999).
60 000 transfected cells per well were inoculated into a poly-D-lysine-coated 96-well microtiter plate (Greiner #650 201). After incubation for 24 h at 37° C., the cells were washed three times with buffer 1 (150 mM NaCl, 2 mM CaCl2, 0.8 mM NaH2PO4, 1 mM MgCl2, 5 mM glucose, 25 mM HEPES, pH=7.4). Subsequently, the buffer solution was replaced by 100 μl of rubidium loading buffer (buffer 1 with 5.4 mM RbCl) and the cells were incubated for a further 3 h at 37° C. The rubidium loading buffer was then removed by washing the cells three times with 200 μl each of potassium chloride wash buffer (buffer 1 with 5.4 mM KCl). After addition of the test substances (70 μl; dissolved in potassium chloride wash buffer with addition of DMSO), the KATP channels of the cells were opened by addition of 70 μl of rilmakalim (2 μM) (cf. Krause et al., Pflügers Arch. 429, 625-635 (1995)) and the cells were incubated at 37° C. for 25 min. Subsequently, the cell supernatants were transferred to a new 96-well microtiter plate and the cells were lyzed by addition of 200 μl of lysis buffer (buffer 1 with 1% Triton X-100). The concentrations of Rb^+ in the cell supernatant and in the cell lyzate were measured by means of atomic absorption spectroscopy using an Al 1200 apparatus (Aurora Instruments Ltd.).
The Rb^+ efflux rate was calculated as [Rb^+SN]/[Rb^+total], wherein [Rb^+SN] is the amount of Rb^+ in the cell supernatant and [Rb^+total] is the sum of the amounts of Rb^+ in the cell supernatant and cell lyzate. IC50 values for the inhibition of the rubidium efflux were calculated with the aid of the Hill equation.

T1 sequence (Q63563 whole entry): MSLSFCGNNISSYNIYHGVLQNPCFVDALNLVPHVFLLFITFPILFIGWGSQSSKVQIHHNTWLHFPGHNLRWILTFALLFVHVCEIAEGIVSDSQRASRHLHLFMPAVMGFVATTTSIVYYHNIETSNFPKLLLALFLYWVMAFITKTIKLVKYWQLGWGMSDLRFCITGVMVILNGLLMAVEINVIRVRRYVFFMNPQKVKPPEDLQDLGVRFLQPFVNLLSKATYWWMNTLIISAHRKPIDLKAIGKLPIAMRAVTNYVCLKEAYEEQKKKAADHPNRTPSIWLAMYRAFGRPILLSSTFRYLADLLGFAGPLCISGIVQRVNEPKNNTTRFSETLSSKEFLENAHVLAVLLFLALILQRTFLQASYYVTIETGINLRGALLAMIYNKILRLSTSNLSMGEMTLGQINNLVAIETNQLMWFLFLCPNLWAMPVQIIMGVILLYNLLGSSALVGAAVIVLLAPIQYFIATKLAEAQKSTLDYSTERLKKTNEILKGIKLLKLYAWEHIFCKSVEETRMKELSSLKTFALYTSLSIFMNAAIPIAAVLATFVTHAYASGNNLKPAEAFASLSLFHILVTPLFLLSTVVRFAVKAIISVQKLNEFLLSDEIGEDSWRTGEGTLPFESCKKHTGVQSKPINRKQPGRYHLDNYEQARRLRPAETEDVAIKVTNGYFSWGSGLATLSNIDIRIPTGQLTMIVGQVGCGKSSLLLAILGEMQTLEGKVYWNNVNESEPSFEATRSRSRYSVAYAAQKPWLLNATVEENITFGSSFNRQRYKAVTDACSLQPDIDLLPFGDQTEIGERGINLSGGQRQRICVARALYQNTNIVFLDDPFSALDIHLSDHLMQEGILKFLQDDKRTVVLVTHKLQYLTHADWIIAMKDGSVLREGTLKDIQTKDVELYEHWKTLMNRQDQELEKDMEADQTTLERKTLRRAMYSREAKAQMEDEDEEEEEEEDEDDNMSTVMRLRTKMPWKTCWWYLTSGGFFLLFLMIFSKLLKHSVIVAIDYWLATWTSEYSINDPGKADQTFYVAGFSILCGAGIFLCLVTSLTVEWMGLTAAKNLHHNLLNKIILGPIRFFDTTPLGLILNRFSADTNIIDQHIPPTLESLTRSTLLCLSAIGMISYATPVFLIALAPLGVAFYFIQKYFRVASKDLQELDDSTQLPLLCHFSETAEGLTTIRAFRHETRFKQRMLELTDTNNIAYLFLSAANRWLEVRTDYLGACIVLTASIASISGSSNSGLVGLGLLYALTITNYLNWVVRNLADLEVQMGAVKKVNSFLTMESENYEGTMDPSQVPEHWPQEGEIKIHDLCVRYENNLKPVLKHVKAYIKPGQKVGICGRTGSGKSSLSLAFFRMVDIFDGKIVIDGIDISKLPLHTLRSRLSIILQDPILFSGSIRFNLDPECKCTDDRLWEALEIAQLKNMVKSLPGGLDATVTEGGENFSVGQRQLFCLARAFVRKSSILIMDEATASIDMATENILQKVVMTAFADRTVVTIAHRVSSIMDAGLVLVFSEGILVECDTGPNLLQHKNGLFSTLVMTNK
T1 sequence (Q61743 whole entry): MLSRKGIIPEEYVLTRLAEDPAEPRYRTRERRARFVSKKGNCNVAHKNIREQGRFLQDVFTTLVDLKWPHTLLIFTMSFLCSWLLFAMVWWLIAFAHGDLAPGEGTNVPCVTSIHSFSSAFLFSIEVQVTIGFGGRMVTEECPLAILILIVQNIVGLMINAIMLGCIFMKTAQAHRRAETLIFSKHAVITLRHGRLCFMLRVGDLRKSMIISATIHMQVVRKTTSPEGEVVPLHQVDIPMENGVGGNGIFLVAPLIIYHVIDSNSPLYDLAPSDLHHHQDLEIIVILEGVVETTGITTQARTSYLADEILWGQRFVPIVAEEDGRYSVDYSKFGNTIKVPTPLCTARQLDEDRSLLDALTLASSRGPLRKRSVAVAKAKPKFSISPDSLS

Row | IC50 [nM] | Compound
1 | < 1000 | Cc1c(F)cc([C@]2(OCC3CC3)CC[C@](C(=O)O)(c3ccccc3)CC2)cc1S(C)(=O)=O [Example 482, Cis-4-Cyclopropylmethoxy-4-(3-fluoro-5-methanesulfonyl-4-methylphenyl)-1-phenylcyclohexanecarboxylic Acid]
2 | < 1000 | Cc1nc([C@]2(OCCC(C)C)CC[C@](C(=O)O)(c3ccccc3)CC2)n(CC2CC2)c1C [Example 376]
3 | < 1000 | CS(=O)(=O)c1cccc2nc([C@]3(OCC4CC4)CC[C@](C(=O)O)(c4ccccc4)CC3)n(CC3CC3)c12 [Example 455]
4 | < 1000 | CCOC1(c2ccccc2S(C)(=O)=O)CCC(C(=O)O)(c2ccccc2)CC1 (centres unmarked) [Example 173]
5 | < 1000 | O=C(O)C1(c2ccccc2)CCC(OCCC2CC2)(c2ccc(F)cc2)CC1 (centres unmarked) [Example 306, 4-(2-Cyclopropylethoxy)-4-(4-fluorophenyl)-1-phenylcyclohexanecarboxylic Acid]
6 | < 1000 | CCOC1(c2ccc(F)cc2)CCC(C(=O)O)(c2ccccc2)CC1 (centres unmarked) [Example 141]
7 | < 1000 | O=C(O)[C@]1(c2ccccc2)CC[C@@](OCC2CC2)(c2ccc(F)cn2)CC1 [Example 267, Cis-4-Cyclopropylmethoxy-4-(5-fluoropyridin-2-yl)-1-phenylcyclohexanecarboxylic Acid]
8 | < 1000 | O=C(O)[C@]1(c2ccccc2)CC[C@@](OCC2CC2)(c2nc3cccnc3n2CC2CC2)CC1 [Example 448]
9 | < 1000 | C=Cc1ccccc1C1(OC)CCC(C(=O)O)(c2ccccc2)CC1 (centres unmarked) [Example 135]
10 | < 1000 | Cc1nc([C@]2(OCCC(C)(C)C)CC[C@](C(=O)O)(c3ccccc3)CC2)n(C)c1Cl [Example 392]
11 | < 1000 | COC1(c2ccc(F)cc2)CCC(C(=O)O)(c2ccccc2)CC1 (centres unmarked) [Example 92, 4-(4-Fluorophenyl)-4-methoxy-1-phenylcyclohexanecarboxylic Acid]
12 | < 1000 | Cc1c(Cl)nc([C@]2(OCC3CC3)CC[C@](C(=O)O)(c3ccccc3)CC2)n1CC1CC1 [Example 383]
13 | < 1000 | CCCn1c(Cl)c(C)nc1[C@]1(OCCC(C)(C)C)CC[C@](C(=O)O)(c2ccccc2)CC1 [Example 389]
14 | < 1000 | CCCOC1(c2ccc(F)cc2)CCC(C(=O)O)(c2ccccc2)CC1 (centres unmarked) [Example 148]
15 | < 1000 | COC1(c2cnc3ccccc3c2)CCC(C(=O)O)(c2ccccc2)CC1 (centres unmarked) [Example 136]
16 | < 1000 | Cc1nc([C@]2(OCC3CC3)CC[C@](C(=O)O)(c3ccc(S(C)(=O)=O)cc3)CC2)n(CC2CC2)c1Cl [Example 408]
17 | < 1000 | CC(C)c1nc([C@]2(OCC3CC3)CC[C@](C(=O)O)(c3ccccc3)CC2)n(CC2CC2)c1Cl [Example 394]
18 | < 1000 | Cc1nc([C@]2(OCC3(C)COC3)CC[C@](C(=O)O)(c3ccccc3)CC2)n(CC2CC2)c1Cl [Example 385]
19 | < 1000 | Cc1nc([C@]2(OCC3CC3)CC[C@](C(=O)O)(c3ccc(OC(F)(F)F)cc3)CC2)n(CC2CC2)c1Cl [Example 410]
20 | < 1000 | O=C(O)[C@]1(c2ccccc2)CC[C@](OCC2CC2)(c2nc3cc(F)ccc3n2CC2CC2)CC1 [Example 453]
21 | < 1000 | COC1(c2cccc(F)c2F)CCC(C(=O)O)(c2ccccc2)CC1 (centres unmarked) [Example 120]
22 | < 1000 | O=C(O)C1(c2ccccc2)CCC(OCC2CC2)(c2ccc(F)cc2)CC1 (centres unmarked) [Example 150]
23 | < 1000 | O=C(O)[C@]1(c2ccccc2)CC[C@](OCC2CC2)(c2nc(C(F)(F)F)cn2CC2CC2)CC1 [Example 381]
24 | < 1000 | Cc1c(Br)nc([C@]2(OCC3CC3)CC[C@](C(=O)O)(c3ccccc3)CC2)n1CC1CC1 [Example 373]
25 | < 1000 | O=C(O)[C@]1(c2ccccc2)CC[C@@](OCC2CC2)(c2nc3cc(F)ccc3n2CC2CC2)CC1 [Example 452]
26 | < 1000 | Cc1nc([C@]2(OCCC(C)C)CC[C@](C(=O)O)(c3ccccc3)CC2)n(CC2CC2)c1Br [Example 375]
27 | < 1000 | O=C(O)[C@]1(c2ccccc2)CC[C@](OCC2CC2)(c2ncc(C(F)(F)F)n2CC2CC2)CC1 [Example 379]
28 | < 1000 | CC(C)(C)c1nc([C@]2(OCC3CC3)CC[C@](C(=O)O)(c3ccccc3)CC2)n(CC2CC2)c1Cl [Example 393]

Continued, compound first:

Row | Compound | IC50 [nM]
29 | O=C(O)[C@]1(c2ccc(F)cc2)CC[C@@](OCC2CC2)(c2nccn2CC2CC2)CC1 [Example 364] | < 1000
30 | O=C(O)[C@]1(c2ccccc2)CC[C@](OCC2CC2)(c2nc(C3CC3)n(CC3CC3)n2)CC1 [Example 296-2, Trans-4-(5-Cyclopropyl-1-cyclopropylmethyl-1H-[1,2,4]triazol-3-yl)-4-cyclopropylmethoxy-1-phenylcyclohexanecarboxylic Acid] | < 1000
31 | CC(C)CCO[C@]1(c2nccn2CC2CC2)CC[C@@](C(=O)O)(c2ccc(F)cc2)CC1 [Example 370] | < 1000
32 | O=C(O)C1(c2ccccc2)CCC(O)(c2ccc(C(F)(F)F)cc2F)CC1 (centres unmarked) [Example 103] | < 1000
33 | O=C(O)[C@]1(c2ccccc2)CC[C@@](OCC2CC2)(c2ccnc(-c3ccccc3)c2)CC1 [Example 488, Cis-4-Cyclopropylmethoxy-1-phenyl-4-(2-phenylpyridin-4-yl)cyclohexanecarboxylic Acid] | < 1000
34 | O=C(O)[C@]1(c2ccccc2)CC[C@](Oc2ccccc2)(c2nc(-c3ccccc3)nn2CC2CC2)CC1 [Example 466] | < 1000
35 | COC1(c2ccc(F)cc2)CCC(C(=O)O)(c2ccccc2F)CC1 (centres unmarked) [Example 235] | < 1000
36 | O=C(O)C1(c2ccccc2)CCC(O)(c2ccc(C(F)(F)F)cc2)CC1 (centres unmarked) [Example 101] | < 1000
37 | O=C(O)C1(c2ccccc2)CCC(O)(c2ccc(F)cc2)CC1 (centres unmarked) [Example 93] | < 1000
38 | Cc1c(F)cc(S(C)(=O)=O)cc1[C@]1(OCC2CC2)CC[C@](C(=O)O)(c2ccccc2)CC1 [Example 480, Cis-4-Cyclopropylmethoxy-4-(3-fluoro-2-methyl-5-methanesulfonylphenyl)-1-phenylcyclohexanecarboxylic Acid] | < 1000
39 | CSc1cc(F)ccc1C1(OCC2CC2)CCC(C(=O)O)(c2ccc(F)cc2)CC1 (centres unmarked) [Example 243] | < 1000
40 | COC1(c2ccc(F)cc2)CCC(C(=O)O)(c2ccc(OC(F)(F)F)cc2)CC1 (centres unmarked) [Example 236] | < 1000
41 | O=C(O)C1(c2ccccc2)CCC(OCC2CC2)(c2cnc3ccccc3c2)CC1 (centres unmarked) [Example 152] | < 1000
42 | COC1(c2ccc(F)cc2)CCC(C(=O)O)(c2cccc(OC(F)(F)F)c2)CC1 (centres unmarked) [Example 237] | < 1000
43 | COc1ccc(-c2cc([C@]3(OCC4CC4)CC[C@@](C(=O)O)(c4ccccc4)CC3)n(CC3CC3)n2)cc1 [Example 319, Trans-4-Cyclopropylmethoxy-4-[2-cyclopropylmethyl-5-(4-methoxyphenyl)-2H-pyrazol-3-yl]-1-phenylcyclohexanecarboxylic Acid] | < 1000
44 | O=C(O)C1(c2ccccc2)CCC(O)(c2ccc(Br)cc2)CC1 (centres unmarked) [Example 105] | < 1000
45 | O=C(O)C1(c2ccccc2)CCC(OCC2CC2)(c2cccc(C3CC3)c2)CC1 (centres unmarked) [Example 182, 4-Cyclopropylmethoxy-4-(3-cyclopropylphenyl)-1-phenylcyclohexanecarboxylic Acid] | < 1000
46 | COC1(c2ccc(F)cc2)CCC(C(=O)O)(c2ccccc2OC(F)(F)F)CC1 (centres unmarked) [Example 238] | < 1000
47 | Cc1c(Br)nc([C@]2(Oc3ccccc3)CC[C@@](C(=O)O)(c3ccc(F)cc3)CC2)n1CC1CC1 [Example 404] | < 1000
48 | CS(=O)(=O)c1ccc(F)cc1C1(OCC2CC2)CCC(C(=O)O)(c2ccc(F)cc2)CC1 (centres unmarked) [Example 258] | < 1000
49 | O=C(O)[C@]1(c2ccc(F)cc2)CC[C@@](OCC2CC2)(c2ccc(F)cn2)CC1 [Example 263, Cis-4-Cyclopropylmethoxy-1-(4-fluorophenyl)-4-(5-fluoropyridin-2-yl)cyclohexanecarboxylic Acid] | < 1000
50 | O=C(O)[C@]1(c2ccccc2)CC[C@](OCC2CC2)(c2nc(-c3ccccc3)n(CC3CC3)n2)CC1 [Example 270, Trans-4-Cyclopropylmethoxy-4-(1-cyclopropylmethyl-5-phenyl-1H-[1,2,4]triazol-3-yl)-1-phenylcyclohexanecarboxylic Acid] | < 1000
